The source of these data is patent publication US7618787B2, “Method of screening compound capable of accelerating or inhibiting apoptosis, apoptosis accelarator and apoptosis inhibitor” (Hisamitsu Pharmaceutical Co., Inc., priority 2004, dated 2009).

The test system of test [1] is p73. Put plainly: Luciferase reporter assay, p73-dependent transcriptional activation in H1299 cells. It is filed as cell-based, human. The note with it: H1299, coexpression with HA-p73α or HA-p73β (FIG. 20, 21, 23). The protocol:
H1299 cells deficient in p53 were seeded at a density of 5×10^4 cells/well onto a 12-well tissue culture dish and transiently transfected with 100 ng of luciferase reporter construct (which carried a p53/p73-responsive element derived from a p21^WAF1, Bax, or MDM2 promoter), 10 ng of pRL-TK Renilla luciferase cDNA, and 25 ng of given expression plasmid (p53, HA-p73α, or HA-p73β) together with or without varying amounts of IKK-α or FLAG-IKK-β expression plasmids. The total amount of DNA per transfection was kept constant (510 ng) with a pcDNA3 empty plasmid. After 48 hours from the transfection, the cells were washed twice with ice-cold PBS and suspended in passive lysis buffer (Promega). Both firefly and Renilla luciferase activities were assayed by use of dual-luciferase reporter assay system (Promega) according to the instruction. […] intensity was measured with TD-20 luminometer (Turner Design). The firefly luciferase signal was normalized based on the Renilla luciferase signal. Results obtained from at least 3 transfections were indicated by mean value±standard deviation.
To explore the functional implication of interaction between IKK-α and p73, the effect of IKK-α on p73-mediated transcriptional activation was first examined. H1299 cells deficient in p53 were transfected with a HA-p73α or HA-p73β expression plasmid and a luciferase reporter construct under the control of a p21^WAF1, Bax, or MDM2 promoter together with or without varying amounts of IKK-α expression plasmids. […] By contrast, increase in p53-responsive reporter gene activity was not induced by IKK-α (FIG. 22). To examine the specificity of p73-dependent transcriptional activation mediated by IKK-α, whether IKK-β enhanced p73 transcriptional activity to p53/p73-responsive promoters was confirmed.
Background: Reporter assays use an easily measured gene product as a stand-in for the process of interest.

Test [2] has as its target T1, p73 (Homo sapiens, UniProt O15350).
T1 construct: expressed in transfected cells; host or cells: COS7
T1 sequence (O15350 1-636): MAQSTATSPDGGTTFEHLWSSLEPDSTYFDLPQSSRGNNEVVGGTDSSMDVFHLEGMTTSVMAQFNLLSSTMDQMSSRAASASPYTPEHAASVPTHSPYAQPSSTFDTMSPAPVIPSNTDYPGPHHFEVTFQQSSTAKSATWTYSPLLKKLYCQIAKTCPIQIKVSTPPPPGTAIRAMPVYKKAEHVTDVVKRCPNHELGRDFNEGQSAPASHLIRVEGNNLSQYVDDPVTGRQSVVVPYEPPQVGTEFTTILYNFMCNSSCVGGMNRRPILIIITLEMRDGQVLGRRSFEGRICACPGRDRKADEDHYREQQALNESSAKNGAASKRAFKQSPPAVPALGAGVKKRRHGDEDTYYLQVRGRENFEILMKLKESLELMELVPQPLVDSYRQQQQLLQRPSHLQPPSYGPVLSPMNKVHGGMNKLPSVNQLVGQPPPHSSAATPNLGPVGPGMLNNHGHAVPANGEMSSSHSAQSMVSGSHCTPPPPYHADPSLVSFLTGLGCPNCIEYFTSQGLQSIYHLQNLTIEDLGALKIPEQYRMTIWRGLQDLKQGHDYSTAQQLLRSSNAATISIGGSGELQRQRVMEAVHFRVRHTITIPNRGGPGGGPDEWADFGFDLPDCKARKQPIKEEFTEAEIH
Put plainly: p73 protein level (stabilization) by immunoblot in cotransfected COS7 cells. It is filed as cell-based. Particulars: COS7 cotransfection (FIG. 14, 15, 29). On the procedure:
(§1) Cells were transiently transfected with a total of 2 μg of expression plasmids. After 48 hours of the transfection, the cells were washed with ice-cold PBS and suspended in lysis buffer (pH 8.0; which contained 25 mM Tris-Cl, 137 mM sodium chloride, 1% Triton X-100, 1 mM phenylmethylsulfonyl fluoride (PMSF), and protease inhibitor mix (Roche Molecular Biochemicals)), followed by brief sonication. After centrifugation at 15000 rpm for 10 minutes, the supernatant was collected and assayed for protein concentrations by the Bradford assay (Bio-Rad). Equal amounts of lysates (protein amount: 50 μg) from the whole cells were denatured by boiling in Laemmli SDS-sample buffer, then separated on 10% SDS-polyacrylamide gel (SDS-PAGE), and transferred at room temperature for 1 hour to polyvinylidene difluoride (PVDF) membranes (Immobilon-P; Millipore) in Tris-glycine buffer containing 10% methanol. The membranes were blocked at room temperature for 1 hour with Tris-buffered saline (TBS-T) containing 5% skim milk and 0.1% Tween 20.
As previously reported, some protein kinases (e.g., c-Abl and PKCδ) that interact with p73 can stabilize p73. To confirm whether IKK-α influenced the stabilization of p73, COS7 cells were transfected with a constant amount of HA-p73α expression plasmid together with or without varying amounts of IKK-α expression plasmids and examined for HA-p73α protein levels. […] Next, whether IKK-β influenced the stabilization of p73 and p53 was investigated by transient transfection.
For orientation: In western blotting, separated proteins are transferred to a membrane and probed.

In another test the test system is H1299 cells. Briefly: Apoptosis assay (trypan blue / Red-Gal double staining), p73α-dependent. In kind it is cell-based, human. The note with it: H1299, coexpression with HA-p73α, 48 hours (FIG. 25-27). The protocol:
To detect apoptosis via p73α and IKK overexpression, H1299 cells were seeded at a density of 1.5×10^4 cells/well onto a 6-well tissue culture dish. Next day, the cells were transiently transfected with 50 ng of β-galactosidase expression plasmid and 50 ng of HA-p73α expression plasmid in the presence or absence of varying amounts of IKK-α or IKK-β expression vectors (100, 200, or 400 ng). After 48 hours of the transfection, the cells were washed with ice-cold PBS and stained at room temperature for 10 minutes with 0.4% trypan blue (PBS solution). Then, the cells were washed twice with PBS, then fixed for 10 minutes in PBS containing 2.5% glutaraldehyde, 1 mM magnesium chloride, and 2 mM EGTA, and stained for 2 hours with Red-Gal (Research Organics) according to the method described in Bayon, Y. et al., Mol. Cell. Biol. 23: 1061-1074 (2003). Red-Gal was used as a marker for visualizing the transfected cells to evaluate the degree of apoptosis occurring in the transfectants. […] Results were indicated by an average of three independent transfections (each performed three times or more).
Potential effect(s) of IKK-α on p73-dependent biological functions such as the regulation of apoptosis was examined. […] After 48 hours of the transfection, the cells were subjected to double staining with trypan blue (nonviable cells) and Red-Gal (transfected cells), and the number of purple cells was scored.

The subject of the next test is p53. Put plainly: p53 protein level (stabilization) by immunoblot in cotransfected COS7 cells. The note with it: COS7 cotransfection (FIG. 14, 15). It is filed as cell-based. On the procedure:
as §1
As previously reported, some protein kinases (e.g., c-Abl and PKCδ) that interact with p73 can stabilize p73. To confirm whether IKK-α influenced the stabilization of p73, COS7 cells were transfected with a constant amount of HA-p73α expression plasmid together with or without varying amounts of IKK-α expression plasmids and examined for HA-p73α protein levels. […]

The target of the next test is T2, HA-p73α (Homo sapiens, UniProt O15350).
T2 construct: expressed in transfected cells; host or cells: COS7
T2 sequence (O15350 1-636): T1 sequence (O15350 1-636)
Briefly: Ubiquitination assay in COS7 cells. In kind it is cell-based. Particulars: COS7, HA-p73α and HA-ubiquitin, MG-132 (FIG. 18, 19). The protocol:
COS7 cells were transiently transfected with a constant amount of expression plasmids encoding HA-p73α and HA-Ub in the presence or absence of varying amounts of IKK-α expression plasmids. After […] from the transfection, the cells were exposed for 6 hours to a proteasome inhibitor MG-132 (final concentration: 20 μM), and lysates from the whole cells were first subjected to immunoprecipitation with an anti-p73 monoclonal antibody and then to immunoblot using an anti-HA monoclonal antibody (12CA5; Roche Molecular Biochemicals) to analyze ubiquitination levels.
As described by Lee, C.-W. et al., Oncogene 18: 4171-4181 (1999), the steady-state level of p73 was regulated at least partially by the proteolytic process through the ubiquitin-proteasome pathway. Whether IKK-α inhibited the ubiquitination of p73 was investigated. COS7 cells were transfected with expression plasmids for HA-p73α and HA-ubiquitin together with or without varying amounts of IKK-α or FLAG-IKK-β expression plasmids. After 48 hours of the transfection, lysates from the whole cells were analyzed by immunoprecipitation and immunoblot and examined for the presence of p73α containing HA-ubiquitin.

For “FLAG-IKK-β: IκB kinase catalytic subunit IKK-β (IKK-2), FLAG-tagged, expressed from plasmid as comparison”, the “p73-dependent transcriptional activation of p21WAF1, Bax, MDM2 promoter reporters” value in the test on p73 [1] is reported as “no remarkable change in p73-dependent transcriptional activation”. Moreover, in the test with p73 [2], the “amount of HA-p73α” value is “no detectable effect on the stabilization of both p73 and p53”. Also, the “number of cells undergoing p73α-dependent apoptosis” value in the test on H1299 cells is “no remarkable effect on p73α-dependent apoptosis”. The “stabilization of p53” value with p53 is “no detectable effect on the stabilization of both p73 and p53”. Also, the “amount of ubiquitinated p73α” value with HA-p73α is given as “inhibited the ubiquitination of p73α to a somewhat lesser degree”.
